Read-outs that look alike come from different tables or passages of the source.
Assays:
hTRPV1 [1] = target: T1, hTRPV1 (Homo sapiens, UniProt Q8NER1); assay: hTRPV1 antagonism, inhibition of activation by capsaicin; format: cell-based; details: for hTRPV1 antagonism toward capsaicin (in words): hTRPV1 in CHO cells, capsaicin 100 nM; for inhibition at 5 µM: CHO, read-out: inhibition% at 5 μM
hTRPV1 [2] = target: T1, hTRPV1; assay: hTRPV1 antagonism, activation by heat; format: cell-based
hTRPV1 [3] = target: T1, hTRPV1; details: read-out: heat 45 °C, IC50; hTRPV1, activator heat 45 °C; previous lead; ref [9]; cited from earlier work

T1 sequence (Q8NER1 whole entry): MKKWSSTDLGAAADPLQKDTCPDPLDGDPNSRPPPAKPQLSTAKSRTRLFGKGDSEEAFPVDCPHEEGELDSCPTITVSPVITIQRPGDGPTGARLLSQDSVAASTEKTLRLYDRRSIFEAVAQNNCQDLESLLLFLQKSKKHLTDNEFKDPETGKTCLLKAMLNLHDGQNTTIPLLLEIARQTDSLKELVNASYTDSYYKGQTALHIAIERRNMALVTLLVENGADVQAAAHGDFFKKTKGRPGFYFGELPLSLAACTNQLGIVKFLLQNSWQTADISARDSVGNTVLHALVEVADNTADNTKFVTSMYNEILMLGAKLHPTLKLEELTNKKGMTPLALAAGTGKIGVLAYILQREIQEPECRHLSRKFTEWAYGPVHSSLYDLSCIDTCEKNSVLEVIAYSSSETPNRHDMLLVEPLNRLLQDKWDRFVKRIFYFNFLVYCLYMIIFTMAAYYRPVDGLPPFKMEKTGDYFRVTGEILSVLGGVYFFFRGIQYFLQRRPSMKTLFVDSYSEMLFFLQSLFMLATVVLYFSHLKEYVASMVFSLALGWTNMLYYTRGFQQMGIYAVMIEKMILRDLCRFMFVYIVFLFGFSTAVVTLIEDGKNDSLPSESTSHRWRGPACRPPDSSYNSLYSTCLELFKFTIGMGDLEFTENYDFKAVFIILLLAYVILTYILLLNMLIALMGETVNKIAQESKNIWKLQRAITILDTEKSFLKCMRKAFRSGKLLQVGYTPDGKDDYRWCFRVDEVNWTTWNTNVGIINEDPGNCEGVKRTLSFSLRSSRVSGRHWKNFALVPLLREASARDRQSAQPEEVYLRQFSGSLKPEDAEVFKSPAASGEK

SMILES: CC(C(=O)NCc1cc(C(C)(C)C)nn1-c1ccc(C(C)(C)C)cc1)c1ccc(NS(C)(=O)=O)c(F)c1 (stereo not shown) [Compound 11]
- hTRPV1 antagonism toward capsaicin (in words) (hTRPV1 [1]): dramatic reduction in activity

SMILES: C[C@H](C(=O)NCc1cc(C(C)(C)C)nn1-c1cccc(Cl)c1)c1ccc(NS(C)(=O)=O)c(F)c1 [Compound 13S]
- IC50 (hTRPV1 [2]): > 5000 nM

SMILES: Cc1ccc(C(C(=O)NCc2cc(C(C)(C)C)nn2-c2cccc(Cl)c2)c2ccc(NS(C)(=O)=O)c(F)c2)cc1 (stereo not shown) [Compound 18]
- inhibition at 5 µM (hTRPV1 [1]): 12%

SMILES: C[C@H](C(=O)NCc1cc(C(C)(C)C)nn1-c1ccc(F)c(Cl)c1)c1ccc(NS(C)(=O)=O)c(F)c1 [Compound 14S]
- hTRPV1 antagonism toward capsaicin (in words) (hTRPV1 [1]): high potency

SMILES: CC(C)(C)c1cc(CNC(=O)C(c2ccc(NS(C)(=O)=O)c(F)c2)C2CCCCC2)n(-c2cccc(Cl)c2)n1 (stereo not shown) [Compound 17]
- inhibition at 5 µM (hTRPV1 [1]): 46%

SMILES: COc1ccc(-n2nc(C(C)(C)C)cc2CNC(=O)C(C)c2ccc(NS(C)(=O)=O)c(F)c2)cc1 (stereo not shown) [Compound 9]
- hTRPV1 antagonism toward capsaicin (in words) (hTRPV1 [1]): dramatic reduction in activity

SMILES: CC(C(=O)NCc1cc(C(C)(C)C)nn1-c1ccc(F)c(Cl)c1)c1ccc(NS(C)(=O)=O)c(F)c1 (stereo not shown) [Compound 14]
- hTRPV1 antagonism toward capsaicin (in words) (hTRPV1 [1]): high potency

SMILES: Cc1ccc(/C=C/c2ccc(-n3nc(C(C)(C)C)cc3CNC(=O)C(C)c3ccc(NS(C)(=O)=O)c(F)c3)cc2)cc1 (stereo not shown) [Compound 12]
- hTRPV1 antagonism toward capsaicin (in words) (hTRPV1 [1]): dramatic reduction in activity

SMILES: CC(C)(C)c1cc(CNC(=O)C(c2cccc(F)c2)c2ccc(NS(C)(=O)=O)c(F)c2)n(-c2cccc(Cl)c2)n1 (stereo not shown) [Compound 19]
- inhibition at 5 µM (hTRPV1 [1]): 49%

SMILES: CC1CCN(c2nc(C(F)(F)F)ccc2CNC(=O)[C@@H](C)c2ccc(NS(C)(=O)=O)c(F)c2)CC1 [GRT12360]
- IC50 (hTRPV1 [3]): 0.8 nM

— publication PMC6988736 (Bioorganic & medicinal chemistry letters, 2017)
